Measured values published in PMC5845353, “The selective cathepsin K inhibitor MIV-711 attenuates joint pathology in experimental animal models of osteoarthritis” (Journal of Translational Medicine, 2018).

System: CTX-II
Experiment: Urinary CTX-II in dogs subjected to partial medial meniscectomy
Assay type: in vivo
Conditions: dog, 30 µmol/kg
Method: Dogs subjected to partial medial meniscectomy received either 30 µmol/kg MIV-711 (synthesized by Medivir and given as a suspension in 1% Methocel A4C; n = 15) or vehicle (1% Methocel A4C; n = 15) by orogastric gavage once daily in the morning. […] Dosing started the day before surgery and lasted through Day 28, the day before necropsy. Each dog was fasted for at least 12 h before dosing and food were returned approximately 4 h following test article administration.
Urine samples were collected from the animals 1 to 3 days before surgery and treatment (baseline sample), 4 to 7 days after the start of treatment (Day 7 sample) and 26 to 28 days after treatment (Day 28 sample). Dogs were housed in metabolic cages overnight during urine collection. […]
In rabbits, conventional CTX-I assays to assess bone resorption cannot be used due to species differences. Instead, urinary helical peptide (HP-1) concentrations were measured in rabbits using the MicroVue Helical Peptide kit (Ref: 8022) from Quidel (San Diego, CA) according to the instructions supplied by the manufacturer. In dogs, urinary levels of C-terminal telopeptide of collagen type I (CTX-I) were measured using a commercially available kit (Urine BETA CrossLaps ELISA, Ref: AC-05F1, IDS Nordic Bioscience Diagnostics A/S). […] In dogs, CTX-II levels were also measured in synovial fluid. […]

C#C[C@@H]1CN(C(=O)[C@H](CC(C)C)NC(=O)c2ccc(-c3nc(N4CCN(C)CC4)sc3F)cc2)[C@@H]2C(=O)CO[C@H]12 [MIV-711]
urinary CTX-II levels reduced by (Day 7, vs. baseline): 80%
urinary CTX-II levels reduced by (Day 28, vs. baseline): 80%
